Measurements from patent US20220241413A1, “COMBINATION THERAPIES USING CD-38 ANTIBODIES” (Takeda Pharmaceutical Company Limited, priority 2019, published 2022).

Key:
[1] = system: relapsed and refractory multiple myeloma (RRMM); experiment: AB79-1501 study, AB79 monotherapy SC in RRMM: disease response; type: in vivo, human; conditions: at the RP2D, anti-CD38 naïve patients who received at least cycle 1
Text: The AB79-1501 study is a Phase 1b/2a multicenter, open-label, dose-escalation, single-arm study in patients with relapsed and refractory multiple myeloma (RRMM), who were previously treated with at least a proteasome inhibitor (PI), an immunomodulatory drug (IMiD), an alkylating agent, and a steroid. Patients eligible for study enrollment are refractory or intolerant to at least one PI and at least one IMiD, and have received either ≥3 prior therapies or ≥2 prior therapies, if one of those therapies included a combination of a PI and an IMiD. In the phase 1b dose-escalation part of the study, patients who were previously exposed to an anti-CD38 agent are eligible; however, this criterion is not required. In the phase 2a expansion part of the study, patients were also refractory to at least one anti-CD38 monoclonal therapy at any time during prior treatment. The study was designed to evaluate the safety and tolerability of subcutaneously administered AB79 monotherapy in patients with RRMM, to determine the recommended phase 2 dose (RP2D), and to provide a preliminary assessment of its single-agent activity against RRMM, including in patients who are refractory to daratumumab. Parameters such as safety, tolerability, pharmacokinetics (PK), pharmacodynamics, and disease response were assessed.
As of the data cutoff, nineteen (19) patients were treated in the dose-escalation portion of the ongoing study in patients with RRMM and have completed at least 1 cycle: 4 patients in the first cohort (45 mg); 3 patients in the second cohort (135 mg); 6 patients in the third cohort (300 mg); and 6 patients in the fourth cohort (600 mg). The most common TEAEs (in ≥10% of patients) regardless of causality in the total population as of this date are fatigue and upper respiratory infection (27% each), insomnia (22%), diarrhea and nausea (17% each), headache and anemia (15% each), neutropenia, abdominal distension, back pain, and hypertension (12% each), cough and pneumonia (10% each). […] The RP2D was determined to be 600 mg with AB79 monotherapy. […]

[2] = target: human CD38 (Homo sapiens, UniProt P28907); experiment: Biacore affinity to human CD38; type: binding
Text: Other Morphosys antibodies targeting CD38 are known (see, e.g., WO 2006/125640, which discloses four human antibodies: MOR03077, MOR03079, MOR03080, and MOR03100 and two murine antibodies: OKT10 and IB4). […] Moreover, the prior art antibodies have poor ADCC as well as CDC activity.

[3] = AB79-2001 phase 1b study in SLE: safety; type: in vivo, human; conditions: 15 patients, data still blinded (AB79 or placebo)
Text: AB79-2001 is a double-blind, placebo-controlled phase 1b study in patients with moderate to severe SLE. As of the clinical data cutoff, a total of 15 patients had received at least 1 dose of AB79 or placebo. Data is still blinded for this study. No new safety concerns have been identified.

[4] = system: newly diagnosed multiple myeloma (NDMM); experiment: AB79-1002 phase 1b study, AB79 with LenDex or VRd in NDMM: disease response; type: in vivo, human; conditions: total population including both backbone regimens, one patient pending
Text: This is a Phase 1b, open-label, multicenter study to evaluate the safety, efficacy, tolerability, and pharmacokinetics (PK) of AB79 when added to 1 of 2 standard backbone regimens (lenalidomide plus dexamethasone [LenDex] or bortezomib [Velcade] plus lenalidomide and dexamethasone [VRd]) in adult patients with newly diagnosed multiple myeloma (NDMM) for whom stem cell transplantation (SCT) is not planned as initial therapy. The dose and schedule for the backbone regimens (LenDex and VRd) are given in accordance with product labeling or standard medical practice. Treatment cycles are 28 days until disease progression (PD) or unacceptable toxicity occurs. Treatment may be discontinued for other reasons listed below. AB79 is supplied by the sponsor. Bortezomib, dexamethasone, and lenalidomide are standard-of-care agents that are supplied from commercial sources. […]
Efficacy assessment of tumor response and disease progression are conducted in accordance with IMWG criteria. […] Bone marrow examinations, skeletal surveys, computed tomography (CT) or magnetic resonance imaging ([…]) to evaluate lytic and/or extramedullary plasmacytomas, and serum calcium corrected for albumin are evaluated as necessary based on patient's baseline disease status. […]

AB79: anti-CD38 monoclonal IgG1 antibody; heavy chain SEQ ID NO:11, light chain SEQ ID NO:12
clinical benefit rate (minor response or better) [1]: 73%
disease control rate (stable disease or better) [1]: 91%
preliminary objective response rate (ORR) [1]: 36%
Kd [2]: 5.4 nM
patients with a Grade 3 or higher TEAE or AEs leading to study drug discontinuation [3]: No patient
preliminary objective response rate (ORR) [4]: 100%
